± gives the expanded uncertainty stated by the source.
Columns and labels:
[1] = 101 kPa, Liquid
[2] = xn = mol fraction of the nth substance listed; settings: 101 kPa, Liquid

CCCC[n+]1ccn(C)c1.O=S(=O)([N-]S(=O)(=O)C(F)(F)F)C(F)(F)F
[1]
Settings | mass density [kg/m3]
293.15 K | 1441.63 ± 0.82
298.15 K | 1436.83 ± 0.81
303.13 K | 1431.98 ± 0.81
308.15 K | 1427.16 ± 0.8
313.15 K | 1422.36 ± 0.79

CCn1cc[n+](C)c1.O=S(=O)([N-]S(=O)(=O)C(F)(F)F)C(F)(F)F
[1]
Settings | mass density [kg/m3]
293.15 K | 1522.08 ± 0.95
298.15 K | 1516.96 ± 0.94
303.13 K | 1511.85 ± 0.93
308.15 K | 1506.8 ± 0.92
313.15 K | 1501.74 ± 0.91

CCCC[n+]1ccn(C)c1.O=S(=O)([N-]S(=O)(=O)C(F)(F)F)C(F)(F)F + C1CCOC1
mass density [kg/m3], [2]
Settings | x1 = 0.0488 | x1 = 0.1139 | x1 = 0.1771 | x1 = 0.2815 | x1 = 0.4048 | x1 = 0.4897 | x1 = 0.6329 | x1 = 0.7468 | x1 = 0.9071 | x1 = 1
293.15 K | 978.17 ± 0.34 | 1069.71 ± 0.44 | 1136.61 ± 0.54 | 1218.29 ± 0.66 | 1286.31 ± 0.73 | 1321.41 ± 0.75 | 1367.37 ± 0.77 | 1395.56 ± 0.79 | 1426.74 ± 0.81 | 1441.63 ± 0.82
298.15 K | 973.69 ± 0.35 | 1065.22 ± 0.43 | 1132.17 ± 0.53 | 1213.74 ± 0.65 | 1281.83 ± 0.73 | 1317.1 ± 0.75 | 1362.88 ± 0.77 | 1391.06 ± 0.78 | 1421.92 ± 0.8 | 1436.83 ± 0.81
303.13 K | 970.01 ± 0.35 | 1060.65 ± 0.42 | 1128.01 ± 0.53 | 1209.23 ± 0.64 | 1277.24 ± 0.72 | 1312.14 ± 0.74 | 1358.73 ± 0.76 | 1386.29 ± 0.77 | 1417.19 ± 0.79 | 1431.98 ± 0.81
308.15 K | 964.12 ± 0.38 | 1055.92 ± 0.43 | 1122.34 ± 0.53 | 1204.63 ± 0.64 | 1272.69 ± 0.71 | 1307.42 ± 0.73 | 1353.21 ± 0.75 | 1381.45 ± 0.77 | 1412.45 ± 0.78 | 1427.16 ± 0.8

CCn1cc[n+](C)c1.O=S(=O)([N-]S(=O)(=O)C(F)(F)F)C(F)(F)F + C1CCOC1
mass density [kg/m3], [2]
Settings | x1 = 0.1037 | x1 = 0.2024 | x1 = 0.3255 | x1 = 0.3841 | x1 = 0.4425 | x1 = 0.5469 | x1 = 0.6863 | x1 = 0.7697 | x1 = 0.9177 | x1 = 1
293.15 K | 1065.02 ± 0.46 | 1178.77 ± 0.62 | 1278.55 ± 0.76 | 1315.59 ± 0.8 | 1347.51 ± 0.83 | 1395.4 ± 0.86 | 1444.8 ± 0.89 | 1469.16 ± 0.9 | 1505.22 ± 0.93 | 1522.08 ± 0.95
298.15 K | 1061.32 ± 0.43 | 1173.6 ± 0.61 | 1274.14 ± 0.76 | 1310.96 ± 0.79 | 1342.57 ± 0.82 | 1390.69 ± 0.85 | 1440.1 ± 0.88 | 1464.51 ± 0.89 | 1500.21 ± 0.92 | 1516.96 ± 0.94
303.13 K | 1056.14 ± 0.42 | 1168.46 ± 0.6 | 1269.66 ± 0.75 | 1306.48 ± 0.78 | 1337.7 ± 0.81 | 1385.78 ± 0.84 | 1435.45 ± 0.87 | 1459.45 ± 0.89 | 1495.17 ± 0.91 | 1511.85 ± 0.93
308.15 K | 1051.2 ± 0.47 | 1163.55 ± 0.61 | 1264.42 ± 0.74 | 1301.8 ± 0.77 | 1332.56 ± 0.8 | 1381.31 ± 0.84 | 1430.62 ± 0.86 | 1454.67 ± 0.88 | 1490.13 ± 0.91 | 1506.8 ± 0.92

CCCC[n+]1ccn(C)c1.O=S(=O)([N-]S(=O)(=O)C(F)(F)F)C(F)(F)F + CC#N
mass density [kg/m3], [2]
Settings | x1 = 0.0971 | x1 = 0.2033 | x1 = 0.2989 | x1 = 0.471 | x1 = 0.6261 | x1 = 0.7423 | x1 = 0.8983 | x1 = 1
293.15 K | 1034.65 ± 0.52 | 1175.45 ± 0.63 | 1252.06 ± 0.71 | 1335.15 ± 0.79 | 1380.43 ± 0.8 | 1404.79 ± 0.8 | 1429.03 ± 0.81 | 1441.63 ± 0.82
298.15 K | 1029.33 ± 0.39 | 1170.35 ± 0.61 | 1247.09 ± 0.7 | 1330.18 ± 0.78 | 1375.57 ± 0.79 | 1400.01 ± 0.79 | 1424.12 ± 0.8 | 1436.83 ± 0.81
303.13 K | 1024.05 ± 0.38 | 1165.12 ± 0.6 | 1242.32 ± 0.69 | 1325.41 ± 0.77 | 1370.72 ± 0.78 | 1395.36 ± 0.79 | 1419.28 ± 0.8 | 1431.98 ± 0.81
308.15 K | 1019.47 ± 0.38 | 1160.25 ± 0.6 | 1237.21 ± 0.68 | 1320.49 ± 0.76 | 1365.88 ± 0.77 | 1390.45 ± 0.78 | 1414.54 ± 0.79 | 1427.16 ± 0.8
313.15 K | 1014.26 ± 0.58 | 1155.05 ± 0.62 | 1232.4 ± 0.69 | 1315.67 ± 0.77 | 1361.14 ± 0.77 | 1385.64 ± 0.77 | 1409.73 ± 0.78 | 1422.36 ± 0.79

CCn1cc[n+](C)c1.O=S(=O)([N-]S(=O)(=O)C(F)(F)F)C(F)(F)F + CC#N
mass density [kg/m3], [2]
Settings | x1 = 0.0533 | x1 = 0.1886 | x1 = 0.337 | x1 = 0.4724 | x1 = 0.652 | x1 = 0.8245 | x1 = 0.924 | x1 = 1
293.15 K | 946.96 ± 0.45 | 1183.76 ± 0.72 | 1316.94 ± 0.83 | 1390.06 ± 0.88 | 1452.53 ± 0.91 | 1492.64 ± 0.92 | 1510.36 ± 0.94 | 1522.08 ± 0.95
298.15 K | 941.54 ± 0.39 | 1178.5 ± 0.64 | 1311.68 ± 0.82 | 1384.82 ± 0.87 | 1447.4 ± 0.9 | 1487.58 ± 0.92 | 1505.26 ± 0.93 | 1516.96 ± 0.94
303.13 K | 936.1 ± 0.4 | 1173.4 ± 0.63 | 1306.48 ± 0.81 | 1379.62 ± 0.87 | 1442.24 ± 0.89 | 1482.39 ± 0.91 | 1500.2 ± 0.92 | 1511.85 ± 0.93
308.15 K | 930.61 ± 0.41 | 1168.18 ± 0.62 | 1301.14 ± 0.8 | 1374.57 ± 0.86 | 1437.1 ± 0.88 | 1477.35 ± 0.9 | 1495.13 ± 0.91 | 1506.8 ± 0.92
313.15 K | 925.26 ± 0.54 | 1162.68 ± 0.74 | 1296.39 ± 0.81 | 1369.51 ± 0.86 | 1432.02 ± 0.88 | 1472.28 ± 0.89 | 1490.11 ± 0.9 | 1501.74 ± 0.91

Source: the NIST ThermoML archive (doi:10.1021/je100315g)
